In PMC7345083, “Vancomycin-Lipopeptide Conjugates with High Antimicrobial Activity on Vancomycin-Resistant Enterococci” (Pharmaceuticals, 2020):
≈ marks a conversion by molar mass, not a printed value.

How the values were obtained:
[1] = tested on: E. faecium ATCC 51559 (vanA); format: cell-based, Enterococcus faecium; conditions: for MIC median / MIC range: ATCC 51559, 18 h
Protocol: (§1) The minimum inhibitory concentration (MIC) was determined by microdilution following the EUCAST and CLSI guidelines via the broth microdilution assay on a 96-well plate. Substances were dissolved in saline solution (0.9%) at a concentration equimolar to 1.28 mg/mL vancomycin. With an increasing hydrophobicity, some substances had to be pre-dissolved in DMSO. The final concentration of DMSO remained below 1.5% and was compared to the DMSO control (no antimicrobial effect was observed up to the highest concentration tested (10%)). All substances were serially diluted on the 96-well plate using Mueller-Hinton-Broth II (cation adjusted). Vancomycin was always used as a control. For bacterial loading, an overnight culture of the referring strain was taken and adjusted to a turbidity corresponding to 10^8 cfu/mL. The bacterial suspension was further diluted to load a bacterial number of 10^6 cfu/mL on the 96-well plate and incubate it for 18 h at 35 ± 1 °C, as described before. MIC was defined as the lowest concentration without visible growth.

[2] = tested on: Enterococcus casseliflavus ATCC 700327 (vanC); format: cell-based; conditions: ATCC 700327, 18 h
[3] = tested on: Enterococcus faecium UL602570 (vanA, clinical isolate); format: cell-based; conditions: for MIC median / MIC range: UL602570 (vanA, clinical isolate, 18 h)
[4] = tested on: E. faecalis ATCC 51299 (vanB); format: cell-based, Enterococcus faecalis; conditions: ATCC 51299, 18 h
Protocol: as §1

[5] = tested on: human blood (red blood cells); assay: Hemolysis (hemoglobin release assay); format: cell-based; conditions: concentrations above 100 µM, range applied 1-900 µM, 2 h, 37 °C
Protocol: Hemolytic activity was determined by the hemoglobin release assay on a 96-well plate. Fresh venal blood was collected from volunteers in anticoagulant tubes. The blood samples were centrifuged for 3 min at 2500 rpm, and afterwards, the supernatant was discarded and PBS (pH 7.4) was added. The tubes were gently inverted, and the previous step was repeated two times. Substances were serial two-fold diluted in PBS (pH 7.4) on a 96-well V-bottom plate. Triton X-100 (1% in PBS) was used as a positive control (Xpos). […] In total, 50 µL of the purified blood samples was added to all columns. After 2 h incubation at 37 °C, the 96-well plate was centrifuged at 4000 rpm for 2 min. The supernatant was transferred to a new flat-bottom 96-well plate and absorption was measured at 554 nm. The percentage of hemolysis was calculated according to the following equation:% hemolysis = 100 × (Xsample − Xblank)/(Xpos − Xblank).(1)

[6] = comparison statement of the abstract, no reference given; cited from earlier work
Text: Multidrug-resistant bacteria represent one of the most important health care problems worldwide. While there are numerous drugs available for standard therapy, there are only a few compounds capable of serving as a last resort for severe infections. Therefore, approaches to control multidrug-resistant bacteria must be implemented. Here, a strategy of reactivating the established glycopeptide antibiotic vancomycin by structural modification with polycationic peptides and subsequent fatty acid conjugation to overcome the resistance of multidrug-resistant bacteria was followed. This study especia ...

[7] = tested on: human blood (red blood cells); conditions: cited from earlier work
Protocol: In order to investigate the hemolytic behavior, human blood from healthy volunteers was taken and exposed to different concentrations of selected conjugates. As a control, unmodified vancomycin, known to have non-hemolytic properties up to 12 mM [40], was used (Figure 4).

## CCCCCCCCCCCC(=O)N[C@@H](CCCNC(=N)N)C(=O)N[C@@H](CCCNC(=N)N)C(=O)N[C@@H](CCCNC(=N)N)C(=O)N[C@@H](CSC1CC(=O)N(CC2CCC(C(=O)N(C)[C@H](CC(C)C)C(=O)N[C@H]3C(=O)N[C@@H](CC(N)=O)C(=O)N[C@H]4C(=O)N[C@H]5C(=O)N[C@H](C(=O)N[C@H](C(=O)O)c6cc(O)cc(O)c6-c6cc5ccc6O)[C@H](O)c5ccc(c(Cl)c5)Oc5cc4cc(c5O[C@@H]4O[C@H](CO)[C@@H](O)[C@H](O)[C@H]4O[C@H]4C[C@](C)(N)[C@H](O)[C@H](C)O4)Oc4ccc(cc4Cl)[C@H]3O)CC2)C1=O)C(N)=O (stereo partly shown) [VN-R3C-C12]
[1]
  MIC median: 4.72 mg/L (≈ 1.93 µM)
  MIC range: 4.72 to 9.44 mg/L
[2]
  MIC median: 2.5 mg/L (≈ 1.02 µM)
  MIC range: 1 to 4 mg/L
[3]
  MIC median: 2.37 mg/L (≈ 0.971 µM)
  MIC range: 2.37 to 4.73 mg/L
[4]
  MIC median: 4 mg/L (≈ 1.64 µM)

## CCCCCCCCCCCC(=O)N[C@@H](CCCNC(=N)N)C(=O)N[C@@H](CCCNC(=N)N)C(=O)N[C@@H](CCCNC(=N)N)C(=O)N[C@@H](CSC1CC(=O)N(CC2CCC(C(=O)NCCN[C@@]3(C)C[C@H](O[C@H]4[C@H](Oc5c6cc7cc5Oc5ccc(cc5Cl)[C@@H](O)[C@@H](NC(=O)[C@@H](CC(C)C)NC)C(=O)N[C@@H](CC(N)=O)C(=O)N[C@H]7C(=O)N[C@H]5C(=O)N[C@H](C(=O)N[C@H](C(=O)O)c7cc(O)cc(O)c7-c7cc5ccc7O)[C@H](O)c5ccc(c(Cl)c5)O6)O[C@H](CO)[C@@H](O)[C@@H]4O)O[C@@H](C)[C@H]3O)CC2)C1=O)C(N)=O (stereo partly shown) [VV-R3C-C12]
[1]
  MIC median: 3.88 mg/L (≈ 1.56 µM)
  MIC range: 3.88 to 7.75 mg/L
[2]
  MIC median: 2.5 mg/L (≈ 1.01 µM)
  MIC range: 0.5 to 4 mg/L
[3]
  MIC median: 0.24 mg/L (≈ 0.0967 µM)
  MIC range: 0.06 to 0.48 mg/L
[4]
  MIC median: 4 mg/L (≈ 1.61 µM)

## CN[C@H](CC(C)C)C(=O)N[C@H]1C(=O)N[C@@H](CC(N)=O)C(=O)N[C@H]2C(=O)N[C@H]3C(=O)N[C@H](C(=O)N[C@H](C(=O)O)c4cc(O)cc(O)c4-c4cc3ccc4O)[C@H](O)c3ccc(c(Cl)c3)Oc3cc2cc(c3O[C@@H]2O[C@H](CO)[C@@H](O)[C@H](O)[C@H]2O[C@H]2C[C@](C)(N)[C@H](O)[C@H](C)O2)Oc2ccc(cc2Cl)[C@H]1O [vancomycin]
[5]
  hemolytic effect at higher concentrations: could neither be observed
[6]
  excretion route: rapidly excreted by the kidneys
[7]
  non-hemolytic properties up to (concentration): up to 12 mM
[1]; E. faecium ATCC 51559, vanA
  resistant to up to (vancomycin concentration): up to 1024 mg/L
[3]; E. faecium UL602570, vanA clinical isolate
  resistance against vancomycin up to (concentration): up to 640 mg/L
